The results in this text go back to patent publication EP4722207A1, “OXOISOINDOLINYL-SUBSTITUTED TETRAHYDROPYRIMIDINEDIONE DERIVATIVE AND USE THEREOF” (Gluetacs Therapeutics (Shanghai) Co., Ltd., priority 2023, dated 2024).

What all share (format): cell-based
For assay [1], the target named is T1, WEE1 (Homo sapiens, UniProt P30291+Q96SW2).
T1 construct: effects of the compounds of the present disclosure on the expression of target proteins in cells; endogenous in cells; host or cells: human PBMCs (hPBMCs)
T1 sequence (P30291 whole entry): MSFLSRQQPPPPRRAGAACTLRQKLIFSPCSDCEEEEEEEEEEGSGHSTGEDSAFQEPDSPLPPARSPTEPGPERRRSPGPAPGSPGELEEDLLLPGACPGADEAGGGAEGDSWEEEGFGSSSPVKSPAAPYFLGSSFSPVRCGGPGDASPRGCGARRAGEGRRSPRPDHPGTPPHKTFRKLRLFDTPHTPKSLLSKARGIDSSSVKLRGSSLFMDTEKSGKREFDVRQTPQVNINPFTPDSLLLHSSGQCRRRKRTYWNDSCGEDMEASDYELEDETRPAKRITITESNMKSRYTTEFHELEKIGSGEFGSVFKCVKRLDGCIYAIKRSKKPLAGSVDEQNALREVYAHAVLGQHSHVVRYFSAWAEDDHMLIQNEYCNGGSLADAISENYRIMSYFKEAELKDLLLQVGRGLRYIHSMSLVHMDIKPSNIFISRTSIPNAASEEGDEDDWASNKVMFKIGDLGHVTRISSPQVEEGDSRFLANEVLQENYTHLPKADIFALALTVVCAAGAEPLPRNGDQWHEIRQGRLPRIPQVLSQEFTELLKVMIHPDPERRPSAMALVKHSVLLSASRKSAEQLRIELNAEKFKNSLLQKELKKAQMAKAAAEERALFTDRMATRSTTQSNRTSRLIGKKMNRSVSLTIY
T1 sequence (Q96SW2 whole entry): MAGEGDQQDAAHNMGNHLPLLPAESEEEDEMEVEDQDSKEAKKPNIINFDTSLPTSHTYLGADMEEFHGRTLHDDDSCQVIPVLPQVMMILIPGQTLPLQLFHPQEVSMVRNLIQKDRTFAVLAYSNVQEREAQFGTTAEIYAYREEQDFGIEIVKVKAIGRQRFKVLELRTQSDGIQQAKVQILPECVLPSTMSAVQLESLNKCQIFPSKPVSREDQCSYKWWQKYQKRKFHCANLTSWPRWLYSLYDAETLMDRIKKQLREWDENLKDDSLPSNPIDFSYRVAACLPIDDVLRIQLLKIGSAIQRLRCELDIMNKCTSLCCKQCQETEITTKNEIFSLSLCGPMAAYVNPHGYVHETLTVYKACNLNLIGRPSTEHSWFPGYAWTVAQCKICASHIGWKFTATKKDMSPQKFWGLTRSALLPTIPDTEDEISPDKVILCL
T1 sequence (Q16531 whole entry partner): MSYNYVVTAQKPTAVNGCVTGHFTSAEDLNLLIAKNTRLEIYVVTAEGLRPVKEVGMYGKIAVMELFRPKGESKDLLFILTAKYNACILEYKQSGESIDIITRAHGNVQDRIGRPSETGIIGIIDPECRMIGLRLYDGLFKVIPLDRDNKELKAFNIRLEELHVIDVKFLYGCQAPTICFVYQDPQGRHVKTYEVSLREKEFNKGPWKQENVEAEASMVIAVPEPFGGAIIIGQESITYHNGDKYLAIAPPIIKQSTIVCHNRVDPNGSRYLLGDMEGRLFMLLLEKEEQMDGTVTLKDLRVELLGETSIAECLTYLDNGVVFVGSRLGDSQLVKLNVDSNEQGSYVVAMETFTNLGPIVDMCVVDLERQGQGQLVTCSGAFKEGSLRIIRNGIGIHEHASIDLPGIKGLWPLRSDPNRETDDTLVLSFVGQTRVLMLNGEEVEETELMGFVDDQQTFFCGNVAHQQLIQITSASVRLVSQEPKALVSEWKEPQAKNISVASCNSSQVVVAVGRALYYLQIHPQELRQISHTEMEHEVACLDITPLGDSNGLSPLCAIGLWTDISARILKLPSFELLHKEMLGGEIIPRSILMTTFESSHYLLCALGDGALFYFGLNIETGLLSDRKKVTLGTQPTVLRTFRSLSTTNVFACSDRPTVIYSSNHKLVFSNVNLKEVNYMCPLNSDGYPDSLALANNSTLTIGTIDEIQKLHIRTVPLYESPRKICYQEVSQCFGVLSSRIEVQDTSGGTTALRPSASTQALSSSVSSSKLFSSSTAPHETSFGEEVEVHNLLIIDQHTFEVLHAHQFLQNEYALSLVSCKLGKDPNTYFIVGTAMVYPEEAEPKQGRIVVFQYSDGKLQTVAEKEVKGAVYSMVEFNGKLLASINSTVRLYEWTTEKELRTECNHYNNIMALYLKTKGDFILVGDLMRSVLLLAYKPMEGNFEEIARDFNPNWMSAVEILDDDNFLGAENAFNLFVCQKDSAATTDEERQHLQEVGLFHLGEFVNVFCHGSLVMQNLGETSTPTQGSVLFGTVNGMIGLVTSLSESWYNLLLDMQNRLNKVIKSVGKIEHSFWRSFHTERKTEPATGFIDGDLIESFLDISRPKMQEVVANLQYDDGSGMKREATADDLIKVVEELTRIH
The assay can be described thus: Western-blot assay, substrate protein degradation in hPBMCs: WEE1. Particulars: for substrate protein remaining % WEE1: 24 hours of compound treatment, 50 nM and 500 nM.

Assay [2] addresses T2, IKZF1 (Homo sapiens, UniProt Q13422+Q96SW2).
T2 construct: effects of the compounds of the present disclosure on the expression of target proteins in cells; endogenous in cells; host or cells: human PBMCs (hPBMCs)
In words: Western-blot assay, substrate protein degradation in hPBMCs: IKZF1. The settings on record: for substrate protein remaining % IKZF1: 24 hours of compound treatment, 50 nM and 500 nM.

Assay [3] has as its target T3, IKZF2 (Homo sapiens, UniProt Q96SW2+Q9UKS7).
T3 construct: effects of the compounds of the present disclosure on the expression of target proteins in cells; endogenous in cells; host or cells: human PBMCs (hPBMCs)
In words: Western-blot assay, substrate protein degradation in hPBMCs: IKZF2. The settings on record: for substrate protein remaining % IKZF2: 24 hours of compound treatment, 50 nM and 500 nM.

The target in assay [4] is T4, IKZF3 (Homo sapiens, UniProt Q96SW2+Q9UKT9).
T4 construct: effects of the compounds of the present disclosure on the expression of target proteins in cells; endogenous in cells; host or cells: human PBMCs (hPBMCs)
T4 sequence (Q9UKT9 whole entry): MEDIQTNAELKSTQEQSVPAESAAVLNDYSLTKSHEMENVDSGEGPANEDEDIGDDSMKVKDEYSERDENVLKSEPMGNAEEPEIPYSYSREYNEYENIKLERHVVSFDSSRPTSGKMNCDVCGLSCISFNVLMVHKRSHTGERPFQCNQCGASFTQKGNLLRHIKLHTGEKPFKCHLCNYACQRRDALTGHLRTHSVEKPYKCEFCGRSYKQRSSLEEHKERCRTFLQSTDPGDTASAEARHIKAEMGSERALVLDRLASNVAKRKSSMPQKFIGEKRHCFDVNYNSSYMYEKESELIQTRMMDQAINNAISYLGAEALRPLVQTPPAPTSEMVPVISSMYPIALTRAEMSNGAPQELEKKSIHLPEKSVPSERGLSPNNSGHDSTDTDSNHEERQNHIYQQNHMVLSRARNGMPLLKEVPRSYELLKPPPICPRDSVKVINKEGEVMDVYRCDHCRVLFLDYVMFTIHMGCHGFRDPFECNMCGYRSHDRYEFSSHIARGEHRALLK
T4 sequence (Q96SW2 whole entry): as the sequence (Q96SW2 whole entry) above
T4 sequence (Q16531 whole entry partner): as the sequence (Q16531 whole entry partner) above
The assay can be described thus: Western-blot assay, substrate protein degradation in hPBMCs: IKZF3. Particulars: for substrate protein remaining % IKZF3: 24 hours of compound treatment, 50 nM and 500 nM.

Assay [5] has as its target T5, CK1α (Homo sapiens, UniProt P48729+Q96SW2).
T5 construct: effects of the compounds of the present disclosure on the expression of target proteins in cells; endogenous in cells; host or cells: human PBMCs (hPBMCs)
The assay can be described thus: Western-blot assay, substrate protein degradation in hPBMCs: CK1α. The settings on record: for substrate protein remaining % CK1α: 24 hours of compound treatment, 50 nM and 500 nM.

Assay [6] addresses T6, GSPT1 (Homo sapiens, UniProt P15170+Q96SW2).
T6 construct: effects of the compounds of the present disclosure on the expression of target proteins in cells; endogenous in cells; host or cells: human PBMCs (hPBMCs)
In words: Western-blot assay, substrate protein degradation in hPBMCs: GSPT1. The settings on record: for substrate protein remaining % GSPT1: 24 hours of compound treatment, 50 nM and 500 nM.

The mark [7] stands for this setting: compounds at 50 nM and 500 nM, 24 hours.

T2 sequence (Q13422 whole entry): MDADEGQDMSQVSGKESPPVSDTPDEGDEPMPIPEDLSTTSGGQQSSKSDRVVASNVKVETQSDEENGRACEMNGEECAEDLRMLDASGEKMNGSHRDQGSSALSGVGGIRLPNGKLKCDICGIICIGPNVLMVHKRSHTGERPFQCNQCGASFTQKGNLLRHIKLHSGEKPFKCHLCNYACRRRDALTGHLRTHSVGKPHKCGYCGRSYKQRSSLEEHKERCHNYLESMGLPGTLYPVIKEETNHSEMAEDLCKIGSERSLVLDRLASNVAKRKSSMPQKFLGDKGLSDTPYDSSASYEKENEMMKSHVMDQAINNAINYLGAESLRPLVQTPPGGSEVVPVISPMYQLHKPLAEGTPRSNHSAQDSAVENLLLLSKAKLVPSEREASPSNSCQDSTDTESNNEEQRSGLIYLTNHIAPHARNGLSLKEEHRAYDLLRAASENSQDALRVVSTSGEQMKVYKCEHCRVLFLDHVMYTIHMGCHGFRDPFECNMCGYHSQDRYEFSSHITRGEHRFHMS
T2 sequence (Q96SW2 whole entry): as the sequence (Q96SW2 whole entry) above
T2 sequence (Q16531 whole entry partner): as the sequence (Q16531 whole entry partner) above
T3 sequence (Q9UKS7 whole entry): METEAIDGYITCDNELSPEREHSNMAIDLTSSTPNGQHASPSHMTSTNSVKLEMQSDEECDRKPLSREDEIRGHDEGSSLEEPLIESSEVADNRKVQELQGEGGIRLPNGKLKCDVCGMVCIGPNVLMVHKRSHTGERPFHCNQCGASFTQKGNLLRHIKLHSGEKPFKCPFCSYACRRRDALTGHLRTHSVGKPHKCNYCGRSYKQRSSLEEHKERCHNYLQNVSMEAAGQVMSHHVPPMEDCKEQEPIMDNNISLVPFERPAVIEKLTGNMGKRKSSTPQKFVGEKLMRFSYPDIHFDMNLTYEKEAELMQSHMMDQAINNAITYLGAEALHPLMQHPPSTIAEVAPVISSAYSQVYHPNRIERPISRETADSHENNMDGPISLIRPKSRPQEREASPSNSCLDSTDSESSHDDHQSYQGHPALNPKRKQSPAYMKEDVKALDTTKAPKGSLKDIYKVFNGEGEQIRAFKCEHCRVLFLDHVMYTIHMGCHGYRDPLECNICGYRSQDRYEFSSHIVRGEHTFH
T3 sequence (Q96SW2 whole entry): as the sequence (Q96SW2 whole entry) above
T3 sequence (Q16531 whole entry partner): as the sequence (Q16531 whole entry partner) above
T5 sequence (P48729 whole entry): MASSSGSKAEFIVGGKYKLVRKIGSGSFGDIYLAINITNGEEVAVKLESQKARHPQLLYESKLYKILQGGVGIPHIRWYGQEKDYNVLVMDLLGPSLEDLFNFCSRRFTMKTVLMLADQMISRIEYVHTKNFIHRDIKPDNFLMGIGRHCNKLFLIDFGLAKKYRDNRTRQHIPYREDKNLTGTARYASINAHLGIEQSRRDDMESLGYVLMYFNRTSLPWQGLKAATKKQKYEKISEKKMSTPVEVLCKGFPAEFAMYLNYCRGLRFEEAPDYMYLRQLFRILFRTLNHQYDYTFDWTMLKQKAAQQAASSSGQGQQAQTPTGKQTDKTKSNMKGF
T5 sequence (Q96SW2 whole entry): as the sequence (Q96SW2 whole entry) above
T5 sequence (Q16531 whole entry partner): as the sequence (Q16531 whole entry partner) above

With `O=C1CCN(N2Cc3cc(CN4CCN(CC5=C(c6ccc(F)cc6)CCCC5)CC4)ccc3C2=O)C(=O)N1` [GT-07297, 1-(5-((4-((4'-fluoro-3,4,5,6-tetrahydro-[1,1'-biphenyl]-2-yl)methyl)piperazin-1-yl)methyl)-1-oxoisoindolin-2-yl)dihydropyrimidine-2,4(1H,3H)-dione], the “substrate protein remaining % WEE1” value in assay [1] is “A (0% ≤ substrate protein remaining % ≤ 80%)”. Also, the “substrate protein remaining % IKZF1” value in assay [2] is on record as “B (80%< substrate protein remaining %≤ 100%)”. Besides, the “substrate protein remaining % IKZF2” value in assay [3] is listed as “A (0% ≤ substrate protein remaining % ≤ 80%)”. The “substrate protein remaining % IKZF3” value in assay [4] is “A (0% ≤ substrate protein remaining % ≤ 80%)”. Further, the “substrate protein remaining % CK1α” value in assay [5] is recorded as “A (0% ≤ substrate protein remaining % ≤ 80%)”. Further, the “substrate protein remaining % GSPT1” value in assay [6] is reported as “A (0% ≤ substrate protein remaining % ≤ 80%)”.

As for `O=C1CCN(N2C(=O)c3ccc(CN4CCN(c5nsc6cc(F)ccc56)CC4)cc3C2=O)C(=O)N1` [GT-07526, 2-(2,4-dioxotetrahydropyrimidin-1(2H)-yl)-5-((4-(6-fluorobenzo[d]isothiazol-3-yl)piperazin-1-yl)methyl)isoindoline-1,3-dione], the “substrate protein remaining % WEE1” value in assay [1] is “B (80%< substrate protein remaining %≤ 100%)”. In assay [2], the “substrate protein remaining % IKZF1” value is “B (80%< substrate protein remaining %≤ 100%)”. Further, in assay [3], the “substrate protein remaining % IKZF2” value is “B (80%< substrate protein remaining %≤ 100%)”. The “substrate protein remaining % IKZF3” value in assay [4] is reported as “B (80%< substrate protein remaining %≤ 100%)”. For the same compound, the “substrate protein remaining % CK1α” value in assay [5] is reported as “A (0% ≤ substrate protein remaining % ≤ 80%)”. Moreover, the “substrate protein remaining % GSPT1” value in assay [6] was “A (0% ≤ substrate protein remaining % ≤ 80%)”.

As to `O=C1CCN(N2Cc3cc(CN4CCN(c5ccnc(Cl)c5F)CC4)ccc3C2=O)C(=O)N1` [GT-07069, 1-(5-((4-(2-chloro-3-fluoropyridin-4-yl)piperazin-1-yl)methyl)-1-oxoisoindolin-2-yl)dihydropyrimidine-2,4(1H,3H)-dione], the “WEE1 substrate protein remaining %” value in assay [1] (setting [7]) is “A ("A" is defined as 0% ≤ substrate protein remaining % ≤ 80%)”. Further, the “IKZF1 substrate protein remaining %” value in assay [2] (setting [7]) was “B ("B" is defined as 80%< substrate protein remaining %≤ 100%)”. The “IKZF2 substrate protein remaining %” value in assay [3] (setting [7]) was “B ("B" is defined as 80%< substrate protein remaining %≤ 100%)”. Further, the “IKZF3 substrate protein remaining %” value in assay [4] (setting [7]) is given as “B ("B" is defined as 80%< substrate protein remaining %≤ 100%)”. Moreover, the “CK1α substrate protein remaining %” value in assay [5] (setting [7]) is “B ("B" is defined as 80%< substrate protein remaining %≤ 100%)”. In addition, in assay [6] (setting [7]), the “GSPT1 substrate protein remaining %” value is recorded as “B ("B" is defined as 80%< substrate protein remaining %≤ 100%)”.

`O=C1CCN(N2C(=O)c3ccc(CN4CC=C(c5n[nH]c6cc(F)ccc56)CC4)cc3C2=O)C(=O)N1` [GT-07643, 2-(2,4-dioxotetrahydropyrimidin-1(2H)-yl)-5-((4-(6-fluoro-1H-indazol-3-yl)-3,6-dihydropyridin-1(2H)-yl)methyl)isoindoline-1,3-dione]: the “substrate protein remaining % WEE1” value in assay [1] is reported as “B (80%< substrate protein remaining %≤ 100%)”. For the same compound, the “substrate protein remaining % IKZF1” value in assay [2] was “B (80%< substrate protein remaining %≤ 100%)”. For the same compound, in assay [3], the “substrate protein remaining % IKZF2” value is “B (80%< substrate protein remaining %≤ 100%)”. The “substrate protein remaining % IKZF3” value in assay [4] is reported as “B (80%< substrate protein remaining %≤ 100%)”. Moreover, the “substrate protein remaining % CK1α” value in assay [5] is on record as “B (80%< substrate protein remaining %≤ 100%)”. The “substrate protein remaining % GSPT1” value in assay [6] was “A (0% ≤ substrate protein remaining % ≤ 80%)”.
